Laboratory results from patent publication US9326985B2, “Heteroaryl pyridone and aza-pyridone amide compounds” (Genentech, Inc., priority 2013, dated 2016).

Columns and labels:
[1] = target: T1, full length human wildtype Btk (Homo sapiens, UniProt Q06187); assay: Biochemical Btk Assay (BTK LC3K)
T1 construct: V5 (C); 6xHis (C); made in house; host or cells: Sf9 insect cells (baculovirus, pFastBac)
Procedure: A generalized procedure for a standard biochemical Btk, Kinase Assay that can be used to test Formula I compounds is as follows. A master mix minus Btk enzyme is prepared containing 1× Cell Signaling kinase buffer (25 mM Tris-HCl, pH 7.5, 5 mM beta-glycerophosphate, 2 mM dithiothreitol, 0.1 mM Na3VO4, 10 mM MgCl2), 0.5 μM Promega PTK Biotinylated peptide substrate 2, and 0.01% BSA. A master mix plus Btk enzyme is prepared containing 1× Cell Signaling kinase buffer, 0.5 μM (micromolar) PTK Biotinylated peptide substrate 2, 0.01% BSA, and 100 ng/well (0.06 mU/well) Btk enzyme. Btk enzyme is prepared as follows: full length human wildtype Btk (accession number NM-000061) with a C-terminal V5 and 6×His tag was subcloned into pFastBac® vector (Invitrogen/Life Technologies) for making baculovirus carrying this epitope-tagged Btk. […] Passage 3 virus is used to infect Sf9 cells to overexpress the recombinant Btk protein. The Btk protein is then purified to homogeneity using Ni-NTA column. […] A solution of 200 μM ATP is prepared in water and adjusted to pH 7.4 with 1N NaOH. A quantity of 1.25 μL (microliter) of compounds in 5% DMSO is transferred to a 96-well ½ area Costar polystyrene plate. Compounds are tested singly and with an 11-point dose-responsive curve (starting concentration is 10 μM; 1:2 dilution). A quantity of 18.75 μL of master mix minus enzyme (as a negative control) and master mix plus enzyme is transferred to appropriate wells in 96-well ½ area costar polystyrene plate. 5 μL of 200 μM ATP is added to that mixture in the 96-well ½ area Costar polystyrene plate for final ATP concentration of 40 μM. The reaction is allowed to incubate for 1 hour at room temperature. The reaction is stopped with Perkin Elmer 1× detection buffer containing 30 mM EDTA, 20 nM SA-APC, and 1 nM PT66 Ab. […] IC50 values are subsequently calculated. Alternatively, the Lanthascreen assay can be used to evaluate Btk activity through quantification of its phosphorylated peptide product. The FRET (Fluorescence Resonance Energy Transfer) that occurs between the fluorescein on the peptide product and the terbium on the detection antibody decreases with the addition of inhibitors of Btk that reduce the phosphorylation of the peptide. In a final reaction volume of 25 uL, Btk (h) (0.1 ng/25 ul reaction) is incubated with 50 mM Hepes pH 7.5, 10 mM MgCl2, 2 mM MnCl2, 2 mM DTT, 0.2 mM NaVO4, 0.01% BSA, and 0.4 uM fluorescein poly-GAT. […] After incubation for 60 minutes at room temperature, the reaction is stopped by the addition of a final concentration of 2 nM Tb-PY20 detection antibody in 60 mM EDTA for 30 minutes at room temperature.

[2] = tested on: CD69 by B lymphocytes in human whole blood activated with goat F(ab')2 anti-human IgM; assay: CD69 Whole Blood Assay (CD69 Hu Blood FACS); assay type: cell-based; conditions: Lymphocyte, CD69 positive of CD20 positive cells
Procedure: CD69 is a type II C-type lectin involved in lymphocyte migration and cytokine secretion.
Human blood is obtained from healthy volunteers, with the following restrictions: 1 week drug-free, non-smokers. Blood (approximately 20 mls to test 8 compounds) is collected by venipuncture into Vacutainer® (Becton, Dickinson and Co.) tubes with sodium heparin.
Solutions of Formula I compounds at 10 mM in DMSO are diluted 1:10 in 100% DMSO, then are diluted by three-fold serial dilutions in 100% DMSO for a ten point dose-response curve. The compounds are further diluted 1:10 in PBS and then an aliquot of 5.5 μl of each compound is added in duplicate to a 2 ml 96-well plate; 5.5 μl of 10% DMSO in PBS is added as control and no-stimulus wells. Human whole blood—HWB (100 μl) is added to each well. After mixing the plates are incubated at 37° C., 5% CO2, 100% humidity for 30 minutes. Goat F(ab′)2 anti-human IgM (10 μl of a 500 μg/ml solution, 50 μg/ml final) is added to each well (except the no-stimulus wells) with mixing and the plates are incubated for an additional 20 hours. At the end of the 20 hour incubation, samples are incubated with fluorescent labeled antibodies for 30 minutes, at 37° C., 5% CO2, 100% humidity. Include induced control, unstained and single stains for compensation adjustments and initial voltage settings. Samples are then lysed with PharM Lyse™ (BD Biosciences Pharmingen) according to the manufacturer's instructions. Samples are then transferred to a 96 well plate suitable to be run on the BD Biosciences HTS 96 well system on the LSRII machine. Data acquired and Mean Fluorescence Intensity values were obtained using BD Biosciences DIVA Software. Results are initially analyzed by FACS analysis software (Flow Jo).

T1 sequence (Q06187 whole entry): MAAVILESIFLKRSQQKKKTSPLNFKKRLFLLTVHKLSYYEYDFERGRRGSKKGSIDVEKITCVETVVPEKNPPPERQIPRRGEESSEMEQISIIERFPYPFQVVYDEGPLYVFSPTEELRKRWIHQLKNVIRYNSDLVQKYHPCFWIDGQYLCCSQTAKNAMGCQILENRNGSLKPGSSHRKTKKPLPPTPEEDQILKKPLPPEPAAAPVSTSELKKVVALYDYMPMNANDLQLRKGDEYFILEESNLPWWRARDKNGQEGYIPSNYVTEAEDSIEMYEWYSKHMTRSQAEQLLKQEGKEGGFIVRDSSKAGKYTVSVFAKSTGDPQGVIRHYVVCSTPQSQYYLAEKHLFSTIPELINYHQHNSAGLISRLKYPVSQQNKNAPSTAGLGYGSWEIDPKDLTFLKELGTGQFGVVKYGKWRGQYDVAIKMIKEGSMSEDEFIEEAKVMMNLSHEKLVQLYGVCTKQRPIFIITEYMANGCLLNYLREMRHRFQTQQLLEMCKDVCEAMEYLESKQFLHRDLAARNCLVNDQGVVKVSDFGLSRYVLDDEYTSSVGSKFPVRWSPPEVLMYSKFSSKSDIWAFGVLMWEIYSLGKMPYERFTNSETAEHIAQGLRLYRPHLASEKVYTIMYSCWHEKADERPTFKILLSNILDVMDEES

| SMILES | Ki ([1]; Table 2) [nM] | IC50 ([2]; Table 2, anti-IgM stimulation) [nM] | Ki ([1]; Table 1) [nM] | IC50 ([2]; Table 1, anti-IgM stimulation) [nM] |
| --- | --- | --- | --- | --- |
| CCOC1C[C@H]1C(=O)Nc1cc(-c2ccnc(N3CCn4c(cc5c4CC(C)(C)C5)C3=O)c2CO)cn(C)c1=O (single isomer, unassigned) [Compound 143] | 53 | 2200 | – | – |
| CN(C)C(=O)C1C[C@H]1C(=O)Nc1cc(-c2ccnc(-n3ncc4cc(C(C)(C)C)cc(F)c4c3=O)c2CO)cn(C)c1=O (single isomer, unassigned) [Compound 170, N2-[5-[2-(6-tert-butyl-8-fluoro-1-oxo-phthalazin-2-yl)-3-(hydroxymethyl)-4-pyridyl]-1-methyl-2-oxo-3-pyridyl]-N1,N1-dimethyl-cyclopropane-1,2-dicarboxamide] | 25 | > 4800 | – | – |
| Cn1cc(-c2ccnc(N3CCn4c(cc5c4CC(C)(C)C5)C3=O)c2CO)cc(NC(=O)[C@@H]2CC23CCC3)c1=O (single isomer, unassigned) [Compound 146] | 17 | 5200 | – | – |
| Cc1cc(C(=O)Nc2cc(-c3ccnc(N4CCn5c(cc6c5CC(C)(C)C6)C4=O)c3CO)cn(C)c2=O)n[nH]1 [Compound 111, N-[5-[2-(7,7-dimethyl-4-oxo-1,2,6,8-tetrahydrocyclopenta[3,4]pyrrolo[3,5-b]pyrazin-3-yl)-3-(hydroxymethyl)-4-pyridyl]-1-methyl-2-oxo-3-pyridyl]-5-methyl-1H-pyrazole-3-carboxamide] | – | – | > 500 | > 5400 |
| CN1CC[C@@]2(C[C@@H]2C(=O)Nc2cc(-c3ccnc(-n4ncc5cc(C(C)(C)C)cc(F)c5c4=O)c3CO)cn(C)c2=O)C1 (single isomer, unassigned) [Compound 174] | 7.2 | 1500 | – | – |
| Cn1cc(-c2ccnc(N3CCc4cc(OC(F)(F)F)ccc4C3=O)c2CO)cc(NC(=O)C2CC2)c1=O [Compound 158, N-[5-[3-(hydroxymethyl)-2-[1-oxo-6-(trifluoromethoxy)-3,4-dihydroisoquinolin-2-yl]-4-pyridyl]-1-methyl-2-oxo-3-pyridyl]cyclopropanecarboxamide] | 262 | > 4400 | – | – |
| Cn1cc(-c2ccnc(N3CCn4c(cc5c4CC(C)(C)C5)C3=O)c2CO)cc(NC(=O)c2cnco2)c1=O [Compound 115, N-[5-[2-(7,7-dimethyl-4-oxo-1,2,6,8-tetrahydrocyclopenta[3,4]pyrrolo[3,5-b]pyrazin-3-yl)-3-(hydroxymethyl)-4-pyridyl]-1-methyl-2-oxo-3-pyridyl]oxazole-5-carboxamide] | – | – | > 500 | > 3200 |
| Cn1cc(-c2ccnc(N3CCn4c(cc5c4CC(C)(C)C5)C3=O)c2CO)cc(NC(=O)c2ccccc2)c1=O [Compound 114, N-[5-[2-(7,7-dimethyl-4-oxo-1,2,6,8-tetrahydrocyclopenta[3,4]pyrrolo[3,5-b]pyrazin-3-yl)-3-(hydroxymethyl)-4-pyridyl]-1-methyl-2-oxo-3-pyridyl]benzamide] | – | – | 236 | > 5400 |
| COCC(=O)Nc1cc(-c2ccnc(-n3ncc4cc(C(C)(C)C)cc(F)c4c3=O)c2CO)cn(C)c1=O [Compound 156, N-[5-[2-(6-tert-butyl-8-fluoro-1-oxo-phthalazin-2-yl)-3-(hydroxymethyl)-4-pyridyl]-1-methyl-2-oxo-3-pyridyl]-2-methoxy-acetamide] | 21 | > 4500 | – | – |
| CN1CC[C@]2(C[C@@H]2C(=O)Nc2cc(-c3ccnc(-n4ncc5cc(C(C)(C)C)cc(F)c5c4=O)c3CO)cn(C)c2=O)C1 (single isomer, unassigned) [Compound 173] | 26 | > 4800 | – | – |
| CC1CC1C(=O)Nc1cc(-c2ccnc(N3CCn4c(cc5c4CC(C)(C)C5)C3=O)c2CO)cn(C)c1=O (stereo not drawn) [Compound 106, N-[5-[2-(7,7-dimethyl-4-oxo-1,2,6,8-tetrahydrocyclopenta[3,4]pyrrolo[3,5-b]pyrazin-3-yl)-3-(hydroxymethyl)-4-pyridyl]-1-methyl-2-oxo-3-pyridyl]-2-methyl-cyclopropanecarboxamide] | – | – | 10.6 | 373 |
| Cn1cc(-c2ccnc(-c3nc4cc(C(C)(C)C)ccc4n3C)c2CO)cc(NC(=O)C2CC2)c1=O [Compound 164, N-[5-[2-(5-tert-butyl-1-methyl-benzimidazol-2-yl)-3-(hydroxymethyl)-4-pyridyl]-1-methyl-2-oxo-3-pyridyl]cyclopropanecarboxamide] | > 500 | > 10600 | – | – |
| Cn1cc(-c2cc(F)cc(N3CCn4c(cc5c4CC(C)(C)C5)C3=O)c2CO)cc(NC(=O)[C@H]2C[C@H]2F)c1=O [Compound 176, (1R,2R)—N-[5-[3-(7,7-dimethyl-4-oxo-1,2,6,8-tetrahydrocyclopenta[3,4]pyrrole[3,5-b]pyrazin-3-yl)-5-fluoro-2-(hydroxymethyl)phenyl]-1-methyl-2-oxo-3-pyridyl]-2-fluoro-cyclopropanecarboxamide] | 2.1 | 32.7 | – | – |
| CC(=O)Nc1cc(-c2ccnc(-n3ncc4cc(C(C)(C)C)cc(F)c4c3=O)c2CO)cn(C)c1=O [Compound 127, N-[5-[2-(6-tert-butyl-8-fluoro-1-oxo-phthalazin-2-yl)-3-(hydroxymethyl)-4-pyridyl]-1-methyl-2-oxo-3-pyridyl]acetamide] | – | – | 10.8 | 335 |
| Cn1cc(-c2ccnc(N3CCn4c(cc5c4CC(C)(C)C5)C3=O)c2CO)cc(NC(=O)C2CC2(F)F)c1=O (stereo not drawn) [Compound 116, N-[5-[2-(7,7-dimethyl-4-oxo-1,2,6,8-tetrahydrocyclopenta[3,4]pyrrolo[3,5-b]pyrazin-3-yl)-3-(hydroxymethyl)-4-pyridyl]-1-methyl-2-oxo-3-pyridyl]-2,2-difluoro-cyclopropanecarboxamide] | – | – | 34.8 | 988 |
| CCNC(=O)Nc1cc(-c2ccnc(N3CCn4c(cc5c4CC(C)(C)C5)C3=O)c2CO)cn(C)c1=O [Compound 159, 1-[5-[2-(7,7-dimethyl-4-oxo-1,2,6,8-tetrahydrocyclopenta[3,4]pyrrolo[3,5-b]pyrazin-3-yl)-3-(hydroxymethyl)-4-pyridyl]-1-methyl-2-oxo-3-pyridyl]-3-ethyl-urea] | 1.6 | 133 | – | – |
| CN1CCC2(CC1)C[C@H]2C(=O)Nc1cc(-c2ccnc(-n3ncc4cc(C(C)(C)C)cc(F)c4c3=O)c2CO)cn(C)c1=O (single isomer, unassigned) [Compound 165] | 40.8 | > 4800 | – | – |
| Cn1cc(-c2cccc(N3CCn4c(cc5c4CC(C)(C)C5)C3=O)c2CO)cc(NC(=O)C2CC2)c1=O [Compound 129, N-[5-[3-(7,7-dimethyl-4-oxo-1,2,6,8-tetrahydrocyclopenta[3,4]pyrrolo[3,5-b]pyrazin-3-yl)-2-(hydroxymethyl)phenyl]-1-methyl-2-oxo-3-pyridyl]cyclopropanecarboxamide] | 3.78 | 51.2 | – | – |
